# Data taken from patent US5939409A, “Processes for the production of anti-inflammatory steroids” (priority 1991, dated 1999).
# What was measured:
# [1] = system: Sephadex induced lung edema (lung); experiment: Unwanted systemic effect by orally absorbed glucocorticosteroid, Sephadex induced lung edema; format: in vivo, Sprague Dawley rat; conditions: for ED50: po, read-out: ED50 (p.o. administration), lung: required glucocorticosteroid dose to reduce the edema by 50%; for ED50 / ED50 (p.o. administration), lung: required glucocorticosteroid dose to reduce the edema by 50%: rat, p.o. 2 h before Sephadex (5 mg/kg), lung lobes weighed 20 h later, relative to Sephadex control group; for dose required to inhibit lung edema (ED50) by oral administration relative to dose needed by local application to the lung (lung selectivity): ratio oral ED50 / local lung ED50, rat
# Method: B. Test model for unwanted systemic effect by orally absorbed glucocorticosteroid
# Sprague Dawley rats (250 g) were slightly anaesthetized with Ephrane and after that the GCS test preparation in a volume of 0,5 ml/kg was given orally. Two hours later a suspension of Sephadex (5 mg/kg in a volume of 1 ml/kg) was instilled in the trachea well above the bifurcation so that the suspension reached both the left and the right lung lobes. Twenty hours later, the rats were killed and the lung lobes were weighed. Control groups got saline instead of glucocorticosteroid preparation and saline instead of Sephadex suspension to determine the weight of non-drug treated Sephadex edema and the normal weight.
# [2] = system: Sephadex induced lung edema (left lung lobe); experiment: Local antiinflammatory activity on airway mucosa (left lung lobe), Sephadex induced lung edema, local instillation; format: in vivo, Sprague Dawley rat; conditions: rat; for ED50 (left lung administration), left lung lobe: required glucocorticosteroid dose to reduce the edema by 50% / ED50: left lung instillation 2 h before Sephadex (5 mg/kg), left lung lobe weighed 20 h later, relative to Sephadex control group; for ED50: read-out: ED50 (left lung administration), left lung lobe: required glucocorticosteroid dose to reduce the edema by 50%
# Method: A. Test model for desired local antiinflammatory activity on airway mucosa (left lung lobe)
# Sprague Dawley rats (250 g) were slightly anaesthetized with Ephrane and the glucocorticosteroid test preparation (suspended in saline) in a volume of 0.5 ml/kg was instilled into just the left lung lobe. Two hours later a suspension of Sephadex (5 mg/kg in a volume of 1 ml/kg) was instilled under slight anaesthesia in the trachea well above the bifurcation so that the suspension reached both the left and right lung lobes. Twenty hours later the rats were killed and the left lung lobes dissected out and weighed. Control groups got saline instead of glucocorticosteroid preparation and saline instead of Sephadex suspension to determine the weight of non-drug treated Sephadex edema and the normal lung weight.
Structure (SMILES),ED50 [1] [µmol/kg],"ED50 (p.o. administration), lung: required glucocorticosteroid dose to reduce the edema by 50% [1] [nmol/kg]",dose required to inhibit lung edema (ED50) by oral administration relative to dose needed by local application to the lung (lung selectivity) [1] [times],"ED50 (left lung administration), left lung lobe: required glucocorticosteroid dose to reduce the edema by 50% [2] [nmol/kg]",ED50 [2] [µmol/kg],"lung selectivity compared to the selected prior art compound (budesonide) ([1]; in words, oral vs local lung ED50, rat)","local antiinflammatory activity compared with budesonide ([2]; in words, left lung administration)"
"CCCC1O[C@@H]2C[C@H]3[C@@H]4CCC5=CC(=O)C=C[C@]5(C)[C@H]4[C@@H](O)C[C@]3(C)[C@]2(C(=O)CO)O1 (stereo partly drawn) [Budesonide, reference compound]",4,4000,13,300,0.3,–,–
"CCC[C@@H]1O[C@@H]2C[C@H]3[C@@H]4C[C@H](F)C5=CC(=O)CC[C@]5(C)[C@@]4(F)[C@@H](O)C[C@]3(C)[C@]2(C(=O)CO)O1 [Example 6, (22R)-16α,17α-butylidenedioxy-6α,9α-difluoro-11β,21-dihydroxypregn-4-ene-3,20-dione]",0.32,320,32,10,0.01,higher lung selectivity,much higher local antiinflammatory activity than budesonide
